# Results: patent US12606541B2, “PPARg modulators and methods of use” (Eisai R&D Management Co., Ltd., priority 2020, dated 2026)
# Read-outs that look alike come from different tables or passages of the source.
# How the values were obtained:
# UM-UC-9 engineered cells = experiment: Cell proliferation / short-term viability assay, CellTiter-Glo 144 h; assay type: cell-based, human; conditions: read-out: CTGlo 144 h UMUC9.5, G150
# How it was run: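 UM-UC-9 engineered assay-ready cells seeded at 500 cells/well in high-glucose DMEM/10% FBS, treated from dose-response plates, grown at 37° C, 5% CO2. CellTiter-Glo 2.0 luminescence read on day 7, with a day-0 pretreatment plate as T0 reference and DMSO wells as negative control.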
# His6-TEV-PPARγ-(234-505) = molecular target: T1, His6-TEV-PPARγ-(234-505) (Homo sapiens, UniProt P37231); experiment: TR-FRET Assay to Measure Co-R Peptide Recruitment to PPARγ; assay type: biochemical; conditions: Co-R peptide (SMRT-ID2) recruitment; top final concentration 20 μM; read-out: TR-FRET i-Ag; AC50
# T1 construct: The His6-TEV-PPARγ-(234-505) protein for assay was expressed and purified; TEV cleavage site (N); made in house
# T1 sequence (P37231 234-505): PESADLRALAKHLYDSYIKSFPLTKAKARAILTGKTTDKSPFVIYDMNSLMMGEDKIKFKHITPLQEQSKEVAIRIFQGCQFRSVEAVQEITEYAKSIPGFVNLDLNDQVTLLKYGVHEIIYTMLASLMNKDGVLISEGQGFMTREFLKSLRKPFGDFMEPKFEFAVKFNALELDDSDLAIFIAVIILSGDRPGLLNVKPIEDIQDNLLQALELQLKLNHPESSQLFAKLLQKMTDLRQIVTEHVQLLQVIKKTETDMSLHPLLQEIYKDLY
# How it was run: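 His-tagged PPARγ (or controls) was preincubated with compound for 20 minutes at room temperature, then 5 nM anti-His terbium antibody and 200 nM FITC-labeled SMRT-ID2 corepressor peptide (final) were added for a further hour. TR-FRET signal was normalized to percent response using 500 nM T0070907 and DMSO controls.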
compound,measurement,setting,value
"COc1cc(-c2cc(C(=O)N3CCC(C(=O)NC4CCCc5c4ccc(=O)n5C)CC3)n[nH]2)c(Cl)cn1 (racemic) [Example 234, 1-(5-(5-chloro-2-methoxypyridin-4-yl)-1H-pyrazole-3-carbonyl)-N-(1-methyl-2-oxo-1,2,5,6,7,8-hexahydroquinolin-5-yl)piperidine-4-carboxamide]",IC50,"UM-UC-9 engineered cells; Homo sapiens, UM-UC-9, 144 h",> 10000 nM
same,AC50,His6-TEV-PPARγ-(234-505),927 nM
"COc1cc(-c2cc(C(=O)N3CC[C@H](C(=O)NCc4nc(C)oc4C(F)(F)F)CC34CC4)n[nH]2)c(F)cn1 [Example 394, (S)-4-(5-(5-fluoro-2-methoxypyridin-4-yl)-1H-pyrazole-3-carbonyl)-N-((2-methyl-5-(trifluoromethyl)oxazol-4-yl)methyl)-4-azaspiro[2.5]octane-7-carboxamide]",IC50,"UM-UC-9 engineered cells; Homo sapiens, UM-UC-9, 144 h",24.5 nM
same,AC50,His6-TEV-PPARγ-(234-505),8.7 nM
"COc1cc(-c2cc(C(=O)N3CC[C@H](C(=O)NC4CCN(c5cnnc(C)c5)C4)CC34CC4)n[nH]2)c(F)cn1 (single isomer, unassigned) [Example 452-B]",IC50,UM-UC-9 engineered cells,> 10000 nM
same,AC50,His6-TEV-PPARγ-(234-505),142 nM
"COc1cc(-c2cc(C(=O)N3CCC(C(=O)N(C)Cc4cccc(Cl)c4)CC3)n[nH]2)c(F)cn1 [Example 161, N-(3-chlorobenzyl)-1-(5-(5-fluoro-2-methoxypyridin-4-yl)-1H-pyrazole-3-carbonyl)-N-methylpiperidine-4-carboxamide]",IC50,"UM-UC-9 engineered cells; Homo sapiens, UM-UC-9, 144 h",1950 nM
same,AC50,His6-TEV-PPARγ-(234-505),941 nM
"COc1cc(-c2cc(C(=O)N3CC[C@H](C(=O)NCc4conc4C(F)(F)F)CC34CC4)[nH]n2)c(F)cn1 [Example 505, (S)-4-(3-(5-fluoro-2-methoxypyridin-4-yl)-1H-pyrazole-5-carbonyl)-N-((3-(trifluoromethyl)isoxazol-4-yl)methyl)-4-azaspiro[2.5]octane-7-carboxamide]",IC50,"UM-UC-9 engineered cells; Homo sapiens, UM-UC-9, 144 h",10.3 nM
same,AC50,His6-TEV-PPARγ-(234-505),6.9 nM
"COc1cc(-c2cc(C(=O)N3CC[C@H](C(=O)NCC45CCC(O)(C4)C5)CC34CC4)n[nH]2)c(F)cn1 [Example 334, (S)-4-(5-(5-fluoro-2-methoxypyridin-4-yl)-1H-pyrazole-3-carbonyl)-N-((4-hydroxybicyclo[2.1.1]hexan-1-yl)methyl)-4-azaspiro[2.5]octane-7-carboxamide]",IC50,"UM-UC-9 engineered cells; Homo sapiens, UM-UC-9, 144 h",284 nM
same,AC50,His6-TEV-PPARγ-(234-505),72.6 nM
"COc1cc(-c2cc(C(=O)N3CCC(C(=O)Nc4cnn5cc(C(C)O)ccc45)CC34CC4)n[nH]2)c(F)cn1 (mixture of isomers) [Example 495, (S)-4-(5-(5-fluoro-2-methoxypyridin-4-yl)-1H-pyrazole-3-carbonyl)-N-(6-((S)-1-hydroxyethyl)pyrazolo[1,5-a]pyridin-3-yl)-4-azaspiro[2.5]octane-7-carboxamide and (S)-4-(5-(5-fluoro-2-methoxypyridin-4-yl)-1H-pyrazole-3-carbonyl)-N-(6-((R)-1-hydroxyethyl)pyrazolo[1,5-a]pyridin-3-yl)-4-azaspiro[2.5]octane-7-carboxamide]",IC50,UM-UC-9 engineered cells,186 nM
same,AC50,His6-TEV-PPARγ-(234-505),15.7 nM
"COc1cc(-c2cc(C(=O)N3CCC(C(=O)NCC4CC(OC)C4)CC3)n[nH]2)c(Cl)cn1 (mixture of isomers) [Example 145, 1-(5-(5-chloro-2-methoxypyridin-4-yl)-1H-pyrazole-3-carbonyl)-N-((3-methoxycyclobutyl)methyl)piperidine-4-carboxamide]",IC50,"UM-UC-9 engineered cells; Homo sapiens, UM-UC-9, 144 h",4120 nM
same,AC50,His6-TEV-PPARγ-(234-505),688 nM
"COc1cc(-c2cc(C(=O)N3CC[C@H](C(=O)NC(C)c4cn5c(n4)COCC5)CC34CC4)n[nH]2)c(F)cn1 (single isomer, unassigned) [Example 415-B]",IC50,UM-UC-9 engineered cells,867 nM
same,AC50,His6-TEV-PPARγ-(234-505),283 nM
"(1R,3s,5S)—N-((1r,4R)-4-ethoxy-4-(trifluoromethyl)cyclohexyl)-8-(5-(5-fluoro-2-methoxypyridin-4-yl)-1H-pyrazole-3-carbonyl)-8-azabicyclo[3.2.1]octane-3-carboxamide and (1R,3s,5S)—N-((1s,4S)-4-ethoxy-4-(trifluoromethyl)cyclohexyl)-8-(5-(5-fluoro-2-methoxypyridin-4-yl)-1H-pyrazole-3-carbonyl)-8-azabicyclo[3.2.1]octane-3-carboxamide [Example 303]",IC50,UM-UC-9 engineered cells,41.5 nM
same,AC50,His6-TEV-PPARγ-(234-505),7.3 nM
"COc1cc(-c2cc(C(=O)N3CC[C@H](C(=O)NCc4ncc(C5COC5)cc4Cl)CC34CC4)n[nH]2)c(F)cn1 [Example 392, (S)—N-((3-chloro-5-(oxetan-3-yl)pyridin-2-yl)methyl)-4-(5-(5-fluoro-2-methoxypyridin-4-yl)-1H-pyrazole-3-carbonyl)-4-azaspiro[2.5]octane-7-carboxamide]",IC50,"UM-UC-9 engineered cells; Homo sapiens, UM-UC-9, 144 h",45.2 nM
same,AC50,His6-TEV-PPARγ-(234-505),9.1 nM
"COc1cc(-c2cc(C(=O)N3CCC(C(=O)NCc4nccnc4C4CC4CO)CC34CC4)n[nH]2)c(F)cn1 (mixture of isomers) [Example 481, (S)-4-(5-(5-fluoro-2-methoxypyridin-4-yl)-1H-pyrazole-3-carbonyl)-N-((3-((1S,2S)-2-(hydroxymethyl)cyclopropyl)pyrazin-2-yl)methyl)-4-azaspiro[2.5]octane-7-carboxamide and (S)-4-(5-(5-fluoro-2-methoxypyridin-4-yl)-1H-pyrazole-3-carbonyl)-N-((3-((1R,2R)-2-(hydroxymethyl)cyclopropyl)pyrazin-2-yl)methyl)-4-azaspiro[2.5]octane-7-carboxamide]",IC50,UM-UC-9 engineered cells,1220 nM
same,AC50,His6-TEV-PPARγ-(234-505),129 nM
"COc1cc(-c2cc(C(=O)N3CC[C@H](C(=O)NCc4nnn(C)c4C(F)(F)F)CC34CC4)[nH]n2)c(F)cn1 [Example 508, (S)-4-(3-(5-fluoro-2-methoxypyridin-4-yl)-1H-pyrazole-5-carbonyl)-N-((1-methyl-5-(trifluoromethyl)-1H-1,2,3-triazol-4-yl)methyl)-4-azaspiro[2.5]octane-7-carboxamide]",IC50,"UM-UC-9 engineered cells; Homo sapiens, UM-UC-9, 144 h",8.5 nM
same,AC50,His6-TEV-PPARγ-(234-505),5.6 nM
"COc1cc(-c2cc(C(=O)N3[C@@H]4CC[C@H]3C[C@H](C(=O)NC3CC[Si](C)(C)CC3)C4)n[nH]2)c(F)cn1 [Example 291, (1R,3s,5S)—N-(1,1-dimethylsilinan-4-yl)-8-(5-(5-fluoro-2-methoxypyridin-4-yl)-1H-pyrazole-3-carbonyl)-8-azabicyclo[3.2.1]octane-3-carboxamide]",IC50,"UM-UC-9 engineered cells; Homo sapiens, UM-UC-9, 144 h",150 nM
same,AC50,His6-TEV-PPARγ-(234-505),69.6 nM
"Cc1cc(-c2c[nH]c(C(=O)N3CCC(C(=O)N[C@H]4CC[C@@](O)(C(F)(F)F)CC4)CC34CC4)n2)c(O)cn1 (stereo partly shown) [Example 310, 4-(4-(5-hydroxy-2-methylpyridin-4-yl)-1H-imidazole-2-carbonyl)-N-((1r,4r)-4-hydroxy-4-(trifluoromethyl)cyclohexyl)-4-azaspiro[2.5]octane-7-carboxamide]",IC50,"UM-UC-9 engineered cells; Homo sapiens, UM-UC-9, 144 h",99 nM
same,AC50,His6-TEV-PPARγ-(234-505),14 nM
"COc1cc(-c2cc(C(=O)N3CCC(NC(=O)C4CCC(O)(C(F)(F)F)CC4)CC34CC4)n[nH]2)c(F)cn1 (single isomer, unassigned) [Example 347-B]",IC50,UM-UC-9 engineered cells,600 nM
same,AC50,His6-TEV-PPARγ-(234-505),198 nM
"O=C(N[C@H]1CC[C@@](O)(C(F)(F)F)CC1)[C@@H]1C[C@H]2CC[C@@H](C1)N2C(=O)c1cc(-c2ccnc(CO)c2)[nH]n1 [Example 317, (1R,3s,5S)—N-((1r,4R)-4-hydroxy-4-(trifluoromethyl)cyclohexyl)-8-(5-(2-(hydroxymethyl)pyridin-4-yl)-1H-pyrazole-3-carbonyl)-8-azabicyclo[3.2]octane-3-carboxamide]",IC50,"UM-UC-9 engineered cells; Homo sapiens, UM-UC-9, 144 h",> 10000 nM
same,AC50,His6-TEV-PPARγ-(234-505),344 nM
"COc1cc(-c2cc(C(=O)N3CC[C@H](C(=O)NCC4(O)COC4)CC34CC4)[nH]n2)c(F)cn1 [Example 463, (S)-4-(3-(5-fluoro-2-methoxypyridin-4-yl)-1H-pyrazole-5-carbonyl)-N-((3-hydroxyoxetan-3-yl)methyl)-4-azaspiro[2.5]octane-7-carboxamide]",IC50,"UM-UC-9 engineered cells; Homo sapiens, UM-UC-9, 144 h",5200 nM
same,AC50,His6-TEV-PPARγ-(234-505),180 nM
"CCO[C@]1(C(F)(F)F)CC[C@@H](NC(=O)[C@H]2CCN(C(=O)c3cc(-c4cc(OC)ncc4F)[nH]n3)C3(CC3)C2)CC1 (single isomer, unassigned) [Example 312-B]",IC50,"UM-UC-9 engineered cells; Homo sapiens, UM-UC-9, 144 h",1.8 nM
same,AC50,His6-TEV-PPARγ-(234-505),2.5 nM
"COc1cc(-c2cc(C(=O)N3CCC(C(=O)Nc4cccc5[nH]ccc45)CC3)n[nH]2)c(Cl)cn1 [Example 261, 1-(5-(5-chloro-2-methoxypyridin-4-yl)-1H-pyrazole-3-carbonyl)-N-(1H-indol-4-yl)piperidine-4-carboxamide]",IC50,"UM-UC-9 engineered cells; Homo sapiens, UM-UC-9, 144 h",490 nM
same,AC50,His6-TEV-PPARγ-(234-505),78.4 nM
"COc1cc(-c2cc(C(=O)N3CCC(C(=O)NCc4cccc(Cl)c4F)CC3)n[nH]2)c(Cl)cn1 [Example 156, N-(3-chloro-2-fluorobenzyl)-1-(5-(5-chloro-2-methoxypyridin-4-yl)-1H-pyrazole-3-carbonyl)piperidine-4-carboxamide]",IC50,"UM-UC-9 engineered cells; Homo sapiens, UM-UC-9, 144 h",106 nM
same,AC50,His6-TEV-PPARγ-(234-505),32.1 nM
"COc1cc(-c2cc(C(=O)N3CCC(C(=O)NC4CCC(O)(C(F)(F)F)CC4)CC3)n[nH]2)c(Cl)cn1 (mixture of isomers) [Example 144, 1-(5-(5-chloro-2-methoxypyridin-4-yl)-1H-pyrazole-3-carbonyl)-N-(4-hydroxy-4-(trifluoromethyl)cyclohexyl)piperidine-4-carboxamide]",IC50,"UM-UC-9 engineered cells; Homo sapiens, UM-UC-9, 144 h",334 nM
same,AC50,His6-TEV-PPARγ-(234-505),44.7 nM
"COc1cc(-c2cc(C(=O)N3CC[C@H](C(=O)Nc4cnn5c4CC(O)CC5)CC34CC4)n[nH]2)c(F)cn1 (single isomer, unassigned) [Example 514-A]",IC50,UM-UC-9 engineered cells,4200 nM
same,AC50,His6-TEV-PPARγ-(234-505),149 nM
